Test systems include A498 renal; EKVX NSCLC; KM12 colon; NCI-H226 lung; RXF 393 renal; SK-OV-3 ovarian; SR leukemia; DU-145 prostate; HS 578T breast; MDA-MB-435.
What all share (assay): NCI tumour cell line growth inhibition, 48 h

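1) Cells in 96-well plates. 2) Compound, 48 h, 5 concentrations. 3) Linear interpolation between surrounding doses. 4) Unreached endpoint = highest concentration. GI50 = concentration required for 50% inhibition of growth. TGI: total growth inhibition.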

As for `Cc1cccc2c1NC(c1c(C)[nH]c3ccccc13)C2` (stereo not given), the TGI in the experiment on A498 renal, in the experiment on EKVX NSCLC, in the experiment with KM12 colon, with NCI-H226 lung, with RXF 393 renal and in the experiment on SK-OV-3 ovarian was more than 100 µM throughout. Further, in the experiment on SR leukemia, the TGI was more than 100 µM.

On to `O=C1/C=C(/c2ccc(O)cc2)[C@H](O)Cc2ccc(OC3OC(CO)C(O)C(O)C3O)cc2O1` (stereo not given in full) (tested in a mixture with another compound), for which the TGI in the experiment on A498 renal, in the experiment with EKVX NSCLC, in the experiment with KM12 colon, with NCI-H226 lung and in the experiment on SK-OV-3 ovarian was more than 100 µM throughout.

In the case of `COC(=O)c1ccc2n[se]nc2c1`, the TGI with A498 renal, in the experiment on EKVX NSCLC, in the experiment with KM12 colon, with RXF 393 renal, in the experiment on SK-OV-3 ovarian and in the experiment with SR leukemia was more than 100 µM in each case.

For the molecule `O=C(N/C(=C\c1cc(Cl)ccc1Cl)c1nc2ccccc2[nH]1)c1ccccc1`, the TGI in the experiment on EKVX NSCLC is more than 100 µM; in the experiment on KM12 colon it was 88.9 µM; in the experiment on RXF 393 renal, 64.4 µM; with SK-OV-3 ovarian it was more than 100 µM; in the experiment on SR leukemia, 81.7 µM.

`COc1cc2c3c(c1OC)C1(C=CC(=O)C=C1)CC3N(C(=O)OC(C)(C)C(Cl)(Cl)Cl)CC2` (stereo not given): the TGI with A498 renal stood at 31.9 µM; in the experiment on EKVX NSCLC it was 45.2 µM; with KM12 colon, 23.2 µM; in the experiment on NCI-H226 lung, 33.1 µM; in the experiment with RXF 393 renal, 18.5 µM; in the experiment with SK-OV-3 ovarian, 96.9 µM. In the experiment with SR leukemia, this molecule yielded a TGI of 23.4 µM.

In the case of `CC(C)(C)NC(=O)C12C3C4C1C1C2C3C41I` (stereo not given), the TGI in the experiment on A498 renal, with KM12 colon, in the experiment with NCI-H226 lung and with SR leukemia was more than 100 µM in each case.

Consider `COC1=C(C(=O)OC(C)(C)C)C23CCCCC2(C(C(=O)OC(C)(C)C)=C(OC)C3C(=O)OC(C)(C)C)C1C(=O)OC(C)(C)C` (stereo not given), for which the TGI in the experiment on A498 renal, in the experiment on EKVX NSCLC, in the experiment on KM12 colon, with NCI-H226 lung, in the experiment with RXF 393 renal and with SK-OV-3 ovarian was more than 100 µM throughout. In addition, the TGI with SR leukemia was more than 100 µM.

Regarding `COc1cc2c(cc1OC)[C@@H]1[C@H](C2=O)c2ccc([N+](=O)[O-])cc2C(=O)N1CCCBr`, the GI50 with A498 renal is 0.666 µM; with DU-145 prostate, 0.553 µM; in the experiment on EKVX NSCLC, 1.78 µM; in the experiment on HS 578T breast it was 5.45 µM; in the experiment on KM12 colon, 0.406 µM; with NCI-H226 lung it was 0.281 µM. The GI50 in the experiment on RXF 393 renal was 0.285 µM; in the experiment with SK-OV-3 ovarian, 1.32 µM; in the experiment with SR leukemia, less than 0.01 µM. For the same molecule, the TGI was 2.14 µM in the experiment on A498 renal; more than 20.4 µM in the experiment with DU-145 prostate; more than 100 µM in the experiment with EKVX NSCLC; 50.6 µM with HS 578T breast; 4.6 µM with KM12 colon; 1.24 µM with NCI-H226 lung. Also, the TGI with RXF 393 renal is 2.22 µM; with SK-OV-3 ovarian it was more than 100 µM; in the experiment with SR leukemia, 0.311 µM.

On to `Clc1cc(Cl)c2n[se]nc2c1`, for which the TGI in the experiment with A498 renal, in the experiment with EKVX NSCLC, with KM12 colon, with RXF 393 renal, with SK-OV-3 ovarian and in the experiment on SR leukemia was more than 100 µM each time.

As to `COc1cc(C=C2C(=O)OC(C)(C)OC2=O)cc(OC)c1OC`, the TGI in the experiment with EKVX NSCLC, in the experiment with KM12 colon, in the experiment with NCI-H226 lung, in the experiment with RXF 393 renal, with SK-OV-3 ovarian and in the experiment with SR leukemia was more than 100 µM in each case.

With `CC(C)CCC[C@@H](C)C1CCC2[C@@H]3CC=C4C[C@@H](OC(=O)CCC(=O)NCC[N+](C)(C)CCCS(=O)(=O)[O-])CC[C@]4(C)C3CC[C@@]21C` (stereo not given in full), the TGI in the experiment with EKVX NSCLC was 79.5 µM; in the experiment on KM12 colon it was 37.9 µM; with NCI-H226 lung, 50.5 µM; in the experiment on RXF 393 renal, 24.2 µM; with SK-OV-3 ovarian, more than 100 µM.

In the case of `CCCCCCCCOCC(O)COC` (stereo not given), the TGI in the experiment with A498 renal, with NCI-H226 lung, with SK-OV-3 ovarian and in the experiment on SR leukemia was more than 100 µM each time.

On to `Nc1ccc(Cl)cc1.Nc1ccc(Cl)cc1.Nc1ccc(Cl)cc1.O=C([O-])C(=O)[O-].O=C([O-])C(=O)[O-].[H+].[Ru+5]`, for which the GI50 in the experiment on A498 renal was more than 82.1 µM; in the experiment on EKVX NSCLC it was 8.15 µM; in the experiment on KM12 colon, 0.124 µM; with NCI-H226 lung, 99.4 µM; in the experiment with RXF 393 renal, more than 100 µM; in the experiment on SK-OV-3 ovarian it was more than 100 µM. Moreover, the GI50 with SR leukemia was 0.023 µM. In addition, the TGI is more than 100 µM in the experiment on A498 renal; more than 100 µM in the experiment on EKVX NSCLC; 21.9 µM in the experiment with KM12 colon; more than 100 µM with NCI-H226 lung; more than 100 µM in the experiment with RXF 393 renal; more than 100 µM in the experiment on SK-OV-3 ovarian. Besides, the TGI in the experiment with SR leukemia was more than 100 µM.

As for `COc1ccc(/C=N\N2C(=O)Cc3ccccc32)cc1`, the TGI in the experiment on A498 renal, with EKVX NSCLC, in the experiment on KM12 colon, in the experiment on NCI-H226 lung and in the experiment with SK-OV-3 ovarian was more than 100 µM each time.

On to `COc1cc(OC)cc(-c2n[nH]nc2-c2ccc3c(c2)OCO3)c1`, for which the GI50 in the experiment with A498 renal was 0.343 µM; in the experiment on DU-145 prostate, 0.346 µM; in the experiment on HS 578T breast, 0.442 µM; in the experiment on KM12 colon, 0.07 µM; in the experiment with NCI-H226 lung it was 5.15 µM; in the experiment with SK-OV-3 ovarian it was 0.486 µM. In addition, the GI50 in the experiment with SR leukemia was 0.0436 µM. In addition, the TGI in the experiment with A498 renal was 9.32 µM; with DU-145 prostate, more than 100 µM; in the experiment with HS 578T breast it was more than 100 µM; in the experiment with KM12 colon, 11.9 µM; with NCI-H226 lung, more than 100 µM; in the experiment with SK-OV-3 ovarian, 93.2 µM. For the same molecule, in the experiment with SR leukemia, the TGI is 11.6 µM.

Turning to `O=C1c2cc(Br)ccc2-c2c1c1ccccc1c(=O)n2CCCCl`, the GI50 in the experiment with DU-145 prostate is 64.7 µM; in the experiment with EKVX NSCLC, 94.3 µM; with HS 578T breast, 27.4 µM; with KM12 colon, 16.6 µM; with MDA-MB-435, 29.4 µM; in the experiment on SK-OV-3 ovarian it was 29.3 µM. Also, the TGI in the experiment on DU-145 prostate was more than 100 µM; with EKVX NSCLC, more than 100 µM; in the experiment with HS 578T breast, 90.7 µM; in the experiment with KM12 colon it was more than 100 µM; with MDA-MB-435, more than 100 µM; with SK-OV-3 ovarian, more than 100 µM.

The values above are taken from PubChem BioAssay (NCI).
